Test in all cases: Drug affinity chromatography with c-ponatinib and LC-MS/MS (ponatinib interactome)
Common to all, as to assay type: binding

Test [1] addresses T1, proteins of U2OS cell lysate (Homo sapiens, UniProt O14974).
T1 construct: Proteins enriched by c-ponatinib from U2OS cell lysate; endogenous in cells; host or cells: U2OS cell lysate
The settings on record: PPP1R12A, Protein phosphatase 1 regulatory subunit 12A. The essentials:
(§1)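 U2OS cell lysate in NP-40 lysis buffer (2 mg protein per pulldown) was incubated with amine-derivatized NHS beads for 2 h at 4 °C. Bound proteins were washed, eluted with 100 mM formic acid, reduced, alkylated and trypsin-digested, then identified by nano-UPLC–MS/MS on Orbitrap instruments with a 60 min gradient.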

Test [2] addresses T2, proteins of U2OS cell lysate (Homo sapiens, UniProt O60664).
T2 construct: Proteins enriched by c-ponatinib from U2OS cell lysate; endogenous in cells; host or cells: U2OS cell lysate
The note with it: PLIN3, Perilipin-3. An outline of the steps:
as §1

For test [3], the target named is T3, proteins of U2OS cell lysate (Homo sapiens, UniProt O75935).
T3 construct: Proteins enriched by c-ponatinib from U2OS cell lysate; endogenous in cells; host or cells: U2OS cell lysate
T3 sequence (O75935 whole entry): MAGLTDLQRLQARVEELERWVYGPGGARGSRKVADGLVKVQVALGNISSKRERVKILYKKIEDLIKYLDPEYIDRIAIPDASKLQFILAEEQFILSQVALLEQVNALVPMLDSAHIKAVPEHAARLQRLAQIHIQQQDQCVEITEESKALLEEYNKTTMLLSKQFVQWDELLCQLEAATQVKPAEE
The settings on record: DCTN3, Dynactin subunit 3. The essentials:
as §1

Test [4] concerns the target T4, proteins of U2OS cell lysate (Homo sapiens, UniProt P61026).
T4 construct: Proteins enriched by c-ponatinib from U2OS cell lysate; endogenous in cells; host or cells: U2OS cell lysate
The settings on record: RAB10, Ras-related protein Rab-10. An outline of the steps: as §1

The target in test [5] is T5, proteins of U2OS cell lysate (Homo sapiens, UniProt Q86UP2).
T5 construct: Proteins enriched by c-ponatinib from U2OS cell lysate; endogenous in cells; host or cells: U2OS cell lysate
T5 sequence (Q86UP2 whole entry): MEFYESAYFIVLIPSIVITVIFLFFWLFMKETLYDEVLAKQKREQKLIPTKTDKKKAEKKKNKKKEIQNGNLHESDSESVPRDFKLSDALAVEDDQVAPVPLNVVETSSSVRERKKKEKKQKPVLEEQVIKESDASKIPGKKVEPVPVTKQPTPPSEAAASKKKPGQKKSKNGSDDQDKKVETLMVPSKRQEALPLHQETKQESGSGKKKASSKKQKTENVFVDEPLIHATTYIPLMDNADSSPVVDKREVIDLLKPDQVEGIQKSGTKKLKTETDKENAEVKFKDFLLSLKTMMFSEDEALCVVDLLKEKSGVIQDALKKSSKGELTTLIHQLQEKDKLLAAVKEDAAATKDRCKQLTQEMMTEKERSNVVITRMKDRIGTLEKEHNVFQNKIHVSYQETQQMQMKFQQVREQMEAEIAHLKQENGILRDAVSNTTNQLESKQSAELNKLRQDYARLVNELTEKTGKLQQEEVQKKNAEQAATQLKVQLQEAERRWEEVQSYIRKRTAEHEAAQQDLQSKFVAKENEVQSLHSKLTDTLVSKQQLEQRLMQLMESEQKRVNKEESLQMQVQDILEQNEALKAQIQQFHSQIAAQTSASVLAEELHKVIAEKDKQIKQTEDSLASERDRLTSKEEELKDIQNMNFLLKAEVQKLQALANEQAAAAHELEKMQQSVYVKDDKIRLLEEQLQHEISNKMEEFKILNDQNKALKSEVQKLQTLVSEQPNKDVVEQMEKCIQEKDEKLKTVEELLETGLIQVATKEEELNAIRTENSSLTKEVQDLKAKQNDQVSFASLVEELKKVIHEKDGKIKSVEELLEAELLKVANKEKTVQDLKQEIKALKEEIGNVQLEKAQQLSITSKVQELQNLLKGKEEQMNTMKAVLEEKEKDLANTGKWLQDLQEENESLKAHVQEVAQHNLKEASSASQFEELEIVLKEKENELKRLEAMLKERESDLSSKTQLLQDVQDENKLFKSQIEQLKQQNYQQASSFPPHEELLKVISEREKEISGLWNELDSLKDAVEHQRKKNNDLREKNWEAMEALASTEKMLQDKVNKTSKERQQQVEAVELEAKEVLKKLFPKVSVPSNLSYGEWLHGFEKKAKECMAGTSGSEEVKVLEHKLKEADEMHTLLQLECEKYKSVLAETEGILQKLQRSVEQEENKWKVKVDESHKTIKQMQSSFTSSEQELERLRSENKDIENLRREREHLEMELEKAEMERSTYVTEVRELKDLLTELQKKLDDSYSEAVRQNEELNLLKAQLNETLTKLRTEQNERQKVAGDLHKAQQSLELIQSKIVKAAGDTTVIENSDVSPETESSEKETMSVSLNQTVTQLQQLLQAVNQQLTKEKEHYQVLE
The settings on record: KTN1, Kinectin. An outline of the steps:
as §1

Test [6] concerns the target T6, proteins of U2OS cell lysate (Homo sapiens, UniProt Q9P0K7).
T6 construct: Proteins enriched by c-ponatinib from U2OS cell lysate; endogenous in cells; host or cells: U2OS cell lysate
The settings on record: RAI14, Ankycorbin. An outline of the steps:
as §1

Test [7] has as its target T7, proteins of U2OS cell lysate (Homo sapiens, UniProt P57678).
T7 construct: Proteins enriched by c-ponatinib from U2OS cell lysate; endogenous in cells; host or cells: U2OS cell lysate
The note with it: GEMIN4, Gem-associated protein 4. An outline of the steps: as §1

Test [8] has as its target T8, proteins of U2OS cell lysate (Homo sapiens, UniProt P56381).
T8 construct: Proteins enriched by c-ponatinib from U2OS cell lysate; endogenous in cells; host or cells: U2OS cell lysate
The settings on record: ATP5E;ATP5EP2, ATP synthase subunit epsilon, mitochondrial. The essentials:
as §1

Test [9] has as its target T9, proteins of U2OS cell lysate (Homo sapiens, UniProt Q15750).
T9 construct: Proteins enriched by c-ponatinib from U2OS cell lysate; endogenous in cells; host or cells: U2OS cell lysate
The note with it: TAB1, TGF-beta-activated kinase 1 and MAP3K7-binding protein 1. An outline of the steps: as §1

Test [10] has as its target T10, proteins of U2OS cell lysate (Homo sapiens, UniProt P25705).
T10 construct: Proteins enriched by c-ponatinib from U2OS cell lysate; endogenous in cells; host or cells: U2OS cell lysate
The note with it: ATP5A1, ATP synthase subunit alpha, mitochondrial. An outline of the steps: as §1

Test [11] concerns the target T11, proteins of U2OS cell lysate (Homo sapiens, UniProt P60174).
T11 construct: Proteins enriched by c-ponatinib from U2OS cell lysate; endogenous in cells; host or cells: U2OS cell lysate
The settings on record: TPI1, Triosephosphate isomerase. An outline of the steps:
as §1

Test [12] addresses T12, proteins of U2OS cell lysate (Homo sapiens, UniProt Q69YQ0).
T12 construct: Proteins enriched by c-ponatinib from U2OS cell lysate; endogenous in cells; host or cells: U2OS cell lysate
The note with it: SPECC1L, Cytospin-A. The essentials:
as §1

For test [13], the target named is T13, proteins of U2OS cell lysate (Homo sapiens, UniProt P26641).
T13 construct: Proteins enriched by c-ponatinib from U2OS cell lysate; endogenous in cells; host or cells: U2OS cell lysate
T13 sequence (P26641 whole entry): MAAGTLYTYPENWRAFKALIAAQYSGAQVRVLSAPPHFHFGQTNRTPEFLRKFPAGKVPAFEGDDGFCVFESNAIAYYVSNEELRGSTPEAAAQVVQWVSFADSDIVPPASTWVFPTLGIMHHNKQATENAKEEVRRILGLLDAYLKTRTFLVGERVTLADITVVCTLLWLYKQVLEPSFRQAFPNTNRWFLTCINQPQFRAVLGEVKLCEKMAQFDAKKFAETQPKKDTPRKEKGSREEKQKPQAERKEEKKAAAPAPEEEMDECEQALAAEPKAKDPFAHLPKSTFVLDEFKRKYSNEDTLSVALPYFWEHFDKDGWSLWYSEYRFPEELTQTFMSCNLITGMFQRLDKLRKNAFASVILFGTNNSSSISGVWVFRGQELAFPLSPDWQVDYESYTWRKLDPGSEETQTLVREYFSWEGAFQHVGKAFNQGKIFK
The note with it: EEF1G, Elongation factor 1-gamma. The essentials:
as §1

For test [14], the target named is T14, proteins of U2OS cell lysate (Homo sapiens, UniProt O95232).
T14 construct: Proteins enriched by c-ponatinib from U2OS cell lysate; endogenous in cells; host or cells: U2OS cell lysate
T14 sequence (O95232 whole entry): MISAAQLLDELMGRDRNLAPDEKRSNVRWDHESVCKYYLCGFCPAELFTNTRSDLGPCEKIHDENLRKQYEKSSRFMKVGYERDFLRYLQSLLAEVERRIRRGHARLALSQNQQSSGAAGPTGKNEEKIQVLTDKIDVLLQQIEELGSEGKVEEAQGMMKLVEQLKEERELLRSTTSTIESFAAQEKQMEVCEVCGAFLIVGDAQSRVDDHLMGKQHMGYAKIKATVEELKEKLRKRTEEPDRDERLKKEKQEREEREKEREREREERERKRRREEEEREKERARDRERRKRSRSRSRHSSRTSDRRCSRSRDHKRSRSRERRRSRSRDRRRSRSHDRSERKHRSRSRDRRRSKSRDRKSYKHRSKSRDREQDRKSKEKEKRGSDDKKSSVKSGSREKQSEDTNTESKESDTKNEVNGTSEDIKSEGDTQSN
The note with it: LUC7L3, Luc7-like protein 3. The essentials: as §1

Test [15] addresses T15, proteins of U2OS cell lysate (Homo sapiens, UniProt O43143).
T15 construct: Proteins enriched by c-ponatinib from U2OS cell lysate; endogenous in cells; host or cells: U2OS cell lysate
The note with it: DHX15, Putative pre-mRNA-splicing factor ATP-dependent RNA helicase DHX15. The essentials: as §1

For test [16], the target named is T16, proteins of U2OS cell lysate (Homo sapiens, UniProt P39019).
T16 construct: Proteins enriched by c-ponatinib from U2OS cell lysate; endogenous in cells; host or cells: U2OS cell lysate
The settings on record: RPS19, 40S ribosomal protein S19. The essentials: as §1

The target of test [17] is T17, proteins of U2OS cell lysate (Homo sapiens, UniProt Q8TEX9).
T17 construct: Proteins enriched by c-ponatinib from U2OS cell lysate; endogenous in cells; host or cells: U2OS cell lysate
T17 sequence (Q8TEX9 whole entry): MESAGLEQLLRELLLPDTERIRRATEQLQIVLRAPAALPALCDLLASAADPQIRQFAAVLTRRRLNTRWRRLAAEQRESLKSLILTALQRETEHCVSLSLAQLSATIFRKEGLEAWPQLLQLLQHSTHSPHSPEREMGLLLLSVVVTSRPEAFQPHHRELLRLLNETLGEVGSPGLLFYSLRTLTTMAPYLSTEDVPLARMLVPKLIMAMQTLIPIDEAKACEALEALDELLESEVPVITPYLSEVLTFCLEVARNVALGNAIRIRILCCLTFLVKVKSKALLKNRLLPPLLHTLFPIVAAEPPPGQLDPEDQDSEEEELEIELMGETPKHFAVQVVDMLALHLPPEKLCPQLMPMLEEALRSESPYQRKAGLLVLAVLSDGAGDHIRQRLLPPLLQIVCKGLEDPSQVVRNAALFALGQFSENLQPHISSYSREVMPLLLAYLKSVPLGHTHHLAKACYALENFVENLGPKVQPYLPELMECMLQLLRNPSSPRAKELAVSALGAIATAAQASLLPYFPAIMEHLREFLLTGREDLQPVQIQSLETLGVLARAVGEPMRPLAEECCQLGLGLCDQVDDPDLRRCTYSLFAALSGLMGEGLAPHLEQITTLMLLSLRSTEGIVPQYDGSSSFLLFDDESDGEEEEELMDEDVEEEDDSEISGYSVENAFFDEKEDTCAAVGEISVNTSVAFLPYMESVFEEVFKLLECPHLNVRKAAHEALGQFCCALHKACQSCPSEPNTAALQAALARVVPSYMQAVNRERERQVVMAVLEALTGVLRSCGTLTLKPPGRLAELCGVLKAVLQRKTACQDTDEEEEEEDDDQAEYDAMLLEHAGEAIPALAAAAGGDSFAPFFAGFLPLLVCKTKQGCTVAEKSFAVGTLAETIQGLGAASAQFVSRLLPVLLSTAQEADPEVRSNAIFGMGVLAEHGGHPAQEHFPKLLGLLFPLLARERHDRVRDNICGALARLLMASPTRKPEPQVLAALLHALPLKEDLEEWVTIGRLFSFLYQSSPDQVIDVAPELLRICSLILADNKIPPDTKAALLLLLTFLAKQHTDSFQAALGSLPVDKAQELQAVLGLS
The settings on record: IPO4, Importin-4. An outline of the steps:
as §1

Test [18] deals with T18, proteins of U2OS cell lysate (Homo sapiens, UniProt Q9Y224).
T18 construct: Proteins enriched by c-ponatinib from U2OS cell lysate; endogenous in cells; host or cells: U2OS cell lysate
The settings on record: C14orf166, UPF0568 protein C14orf166. The essentials: as §1

The target of test [19] is T19, proteins of U2OS cell lysate (Homo sapiens, UniProt P31946).
T19 construct: Proteins enriched by c-ponatinib from U2OS cell lysate; endogenous in cells; host or cells: U2OS cell lysate
T19 sequence (P31946 whole entry): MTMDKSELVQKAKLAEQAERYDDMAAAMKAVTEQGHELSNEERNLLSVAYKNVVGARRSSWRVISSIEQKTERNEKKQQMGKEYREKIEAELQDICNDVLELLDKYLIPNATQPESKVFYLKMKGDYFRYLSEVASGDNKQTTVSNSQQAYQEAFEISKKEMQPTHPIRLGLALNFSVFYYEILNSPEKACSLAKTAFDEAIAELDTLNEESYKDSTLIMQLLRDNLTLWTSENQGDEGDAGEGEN
The settings on record: YWHAB, 14-3-3 protein beta/alpha. An outline of the steps: as §1

T6 sequence (Q9P0K7 whole entry): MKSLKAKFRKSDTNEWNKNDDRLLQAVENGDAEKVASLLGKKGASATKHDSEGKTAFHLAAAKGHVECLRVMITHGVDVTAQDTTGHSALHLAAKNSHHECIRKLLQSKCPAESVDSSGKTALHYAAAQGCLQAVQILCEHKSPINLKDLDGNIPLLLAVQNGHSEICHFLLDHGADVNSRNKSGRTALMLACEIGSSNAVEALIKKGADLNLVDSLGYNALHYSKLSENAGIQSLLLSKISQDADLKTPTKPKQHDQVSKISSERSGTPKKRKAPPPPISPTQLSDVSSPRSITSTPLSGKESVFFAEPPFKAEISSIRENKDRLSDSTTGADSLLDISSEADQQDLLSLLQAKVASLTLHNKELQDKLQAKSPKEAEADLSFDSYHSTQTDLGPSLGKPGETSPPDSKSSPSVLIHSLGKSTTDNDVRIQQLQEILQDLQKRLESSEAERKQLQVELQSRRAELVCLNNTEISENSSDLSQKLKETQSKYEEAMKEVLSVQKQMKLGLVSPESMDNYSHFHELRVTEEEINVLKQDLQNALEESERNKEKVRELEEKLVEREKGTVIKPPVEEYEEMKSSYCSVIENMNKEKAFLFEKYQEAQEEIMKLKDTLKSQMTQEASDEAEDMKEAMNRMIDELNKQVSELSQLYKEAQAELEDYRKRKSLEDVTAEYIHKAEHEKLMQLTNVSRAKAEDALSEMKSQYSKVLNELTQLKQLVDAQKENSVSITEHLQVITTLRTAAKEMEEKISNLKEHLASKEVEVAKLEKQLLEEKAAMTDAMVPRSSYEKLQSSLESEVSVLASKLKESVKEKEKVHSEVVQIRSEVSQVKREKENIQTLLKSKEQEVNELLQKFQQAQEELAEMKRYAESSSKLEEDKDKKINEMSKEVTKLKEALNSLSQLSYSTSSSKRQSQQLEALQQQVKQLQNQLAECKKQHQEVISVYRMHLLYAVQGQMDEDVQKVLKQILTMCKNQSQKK
T4 sequence (P61026 whole entry): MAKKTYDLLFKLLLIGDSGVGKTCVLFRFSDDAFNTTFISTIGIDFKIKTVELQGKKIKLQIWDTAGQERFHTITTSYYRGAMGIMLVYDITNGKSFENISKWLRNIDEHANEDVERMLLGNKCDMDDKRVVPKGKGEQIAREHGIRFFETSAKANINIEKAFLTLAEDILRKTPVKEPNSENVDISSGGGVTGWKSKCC
T8 sequence (P56381 whole entry): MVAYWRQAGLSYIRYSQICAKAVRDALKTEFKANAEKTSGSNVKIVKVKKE

`Cc1ccc(C(=O)Nc2ccc(CN3CCN(C)CC3)c(C(F)(F)F)c2)cc1C#Cc1cnc2cccnn12` [PON]: the “Average LFQ PON_WT” value in [1] is 20.7589; in [2], 20.1604; in test [3] it was 20.8844; in test [4], 19.7729; in test [5] it was 24.25; in [6], 19.7116. The “Average LFQ PON_WT” value in test [7] amounted to 20.1071; in test [8] it was 23.9529; in test [9], 26.3342; in test [10], 26.7182; in test [11], 20.2344; in test [12], 20.8707. The “Average LFQ PON_WT” value amounted to 25.0677 in test [13]; 20.3652 in test [14]; 20.8395 in test [15]; 21.4728 in test [16]; 20.7176 in test [17]; 20.4304 in test [18]. Moreover, the “Average LFQ PON_WT” value in test [19] was found to be 23.524.

The values are drawn from paper PMC6120666 (The EMBO Journal, 2018).
